These results are taken from article PMC6403188, “Species-Specific Structural Requirements of Alpha-Branched Trehalose Diester Mincle Agonists” (Frontiers in Immunology, 2019).

Molecules are shown by their SMILES.

Data set [1] concerns primary human PBMCs. The data set is described as follows: Cytokine production from primary human PBMCs (multiplex). In kind it is cell-based. To be noted: plate-coated compound, 24 h, 5 individual donors. From the text: PBMCs were obtained via leukapheresis from normal donors (AllCells, Berkeley, CA) or fresh blood was obtained from health human donors through a University of Montana Institutional Review Board (IRB) approved protocol. PBMCs obtained via leukapheresis were washed in 1x PBS and cryopreserved in freezing media (50% RPMI, 40% FCS, 10% DMSO) for future use. PBMCs from on-site human donors were separated from whole blood via density gradient separation using Histopaque 1077 (Sigma). Cells were washed in RPMI media containing 10% heat inactivated FBS, penicillin/streptomycin/glutamine (complete media) and resuspended at the desired cell concentration in complete media. Cells were treated with the indicated compound concentrations by addition to plates coated with a serial dilution of the stock compound in diluent (50% isopropanol/50% isooctane, fully evaporated).
Supernatants were harvested from treated cells following 18–24 h of incubation. Supernatants were analyzed using a DuoSet TNFα ELISA (R&D Systems, Minneapolis, MN) or Luminex multiplex panel for analytes TNFα, IL-1β, IL-6, IFNγ, IL-12p70, and IL-23 (R&D Systems) per the manufacturer's instructions. Multiplex analysis was performed using a Luminex 200 instrument (Luminex Corporation) and analyzed with StarStation2.3 software. ELISAs were read on a plate reader at 450 nm and cytokine concentration was calculated by fitting the standard curve OD values to a 4-parameter logistical model using curve fitting software (XLfit, IDBS, Alameda, CA).
To determine if the abridged cytokine repertoire induced by the compounds from the cell lines was a cell-specific or compound-specific phenomenon, the response of a heterogeneous primary human PBMCs to the αTDE compound library was also evaluated. Primary human PBMCs were incubated with the αTDE compound and supernatants were evaluated by multiplex cytokine ELISA for TNFα, IL-1β, IL-23, IL-6 (Th17 associated) and IFNγ and IL-12p70 (Th1 associated). As with THP-1 cells, robust dose-responsive induction of TNFα and IL-1β was detected, but unlike the THP-1 cells dose-responsive stimulation of IL-6 and IL-23 production was also noted in response to a subset of the αTDE compounds (Figure 5). No production of the Th1-associated IFNγ or IL-12p70 were detected (data not shown). […] Consistent with the previous THP-1 cell responses, the longer chain length compounds, B32-B46, induced minimal cytokine responses only at the highest dose evaluated (Figure 5, right graphs).
Figure 5 Cytokine production from primary human mononuclear cells in response to stimulation with synthetic trehalose diester compounds. […] Cryopreserved PBMCs were thawed and applied to the compound-coated plates and incubated at 37°C; supernatant was harvested 24 h later and analyzed for TNFα, IL-1β, IL-23, IL-6. […]

The target of data set [2] is T1, mouse Mincle (Mus musculus, UniProt Q9R0Q8).
T1 construct: host or cells: HEK (HEK-Blue) cells with NF-κB-driven SEAP reporter
T1 sequence (Q9R0Q8 1-214): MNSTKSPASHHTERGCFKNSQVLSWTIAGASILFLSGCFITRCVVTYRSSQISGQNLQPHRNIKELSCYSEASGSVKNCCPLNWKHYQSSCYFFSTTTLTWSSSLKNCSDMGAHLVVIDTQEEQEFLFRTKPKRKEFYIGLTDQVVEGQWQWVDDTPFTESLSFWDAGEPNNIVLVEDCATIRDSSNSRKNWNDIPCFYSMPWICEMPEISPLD
The data set is described as follows: HEK cells expressing mouse Mincle with NF-κB-driven SEAP reporter. In kind it is cell-based. To be noted: average calculated EC50, n = 3; plate-coated compound, 24 h; read-out: mMincle EC50 (converted). On the procedure:
Human and mouse Mincle expressing HEK cells were obtained from Invivogen (San Diego, CA). Cells were cultured according to the manufactures instructions in DMEM with 10% FBS, 50 U/ml penicillin, […] streptomycin, […] Normocin, 2 mM L-glutamine, 30 μg/ml blasticidin, 1 μg/ml puromycin and 1x HEK-Blue™ CLR Selection. For assay, indicated compounds were serially diluted in diluent (50%IPA/50% isooctane), 20 μl of a 10x final concentration were applied to the bottom of a 96-well tissue culture plate and the solvent was evaporated for >1 h in a biosafety hood. HEK cells were applied to the plates at a density of 3 × 10^5 cells/well and incubated for 18–24 h at 37°C. Cell supernatants were harvested and analyzed via the manufacturer's instructions using Hek-Blue^TM Detection. SEAP activity was assessed by reading the optical density (OD) at 620–655 nm with a microplate reader; data are expressed as the fold change in OD over vehicle treated cells.
To investigate the capacity of these molecules to bind to and activate the Mincle receptor, we used human embryonic kidney (HEK) cells expressing the human or mouse Mincle receptor along with an NF-κB-driven secreted embryonic alkaline phosphatase (SEAP) reporter. Many of the αTDE compounds were able to induce production of SEAP in a dose dependent manner (Figure 2). HEK null cells (HEK cells containing the NF-kB reporter without Mincle receptor) were used as a negative controls to confirm the receptor specificity of the compounds in HEK cells expressing human or mouse Mincle reporter (Supplemental Figure 4). […] The relative activity of TDM and TDB in the human and mouse HEK cells is consistent with the results reported by others ([20]). […] This synthetic version is a shorter chain version of the lipid-derived one reported to be “human-specific” ([28]).
Figure 2 Activation of human or mouse Mincle in response to synthetic αTDE compounds. The indicated compounds were dissolved in 50% isopropanol/isooctane, serially diluted in vehicle and then dried to the bottom of a tissue culture plate. HEK cells transfected with human (A–C) or mouse (D–F) Mincle and an NF-κB-driven SEAP reporter were incubated with the compounds for 24 h followed by assessment of the supernatants for SEAP levels. Data are represented as fold change in OD650 over vehicle treated cells. Graphs are mean values from three independent experiments ± SEM. Table in (G) represents the average calculated EC50 and average max SEAP value (± SD, n = 3) for each compound in each cell line. […]

In data set [3] the test system is Hek Blue human or mouse Mincle-expressing cells. It is filed as cell-based. To be noted: top concentrations, 24 h; compared with vehicle only-treated cells.
For data set [4], the system named is BALB/c mice. In words: Anti-M72 serum antibody ELISA after i.m. vaccination with M72 antigen plus liposomal adjuvant. To be noted: 0.125 μg M72 antigen plus 2, 10, or 50 nmol adjuvant in DDA:DSPC liposomes, i.m. two times, 14 days post-secondary vaccination. In kind it is in vivo, mouse. As to the method:
(§1) Animal studies were carried out in an OLAW and AAALAC accredited vivarium in accordance with University of Montana's IACUC guidelines for the care and use of laboratory animals. Groups of 10–14 BALB/c mice were vaccinated intramuscularly with 0.125 μg M72 antigen and indicated concentrations of various CLR adjuvant candidates (liposomal formulations) in 50 μl total volume per injection. After 14 days, blood and serum samples were collected and a secondary vaccination was administered. At day 19 (5 days post-secondary vaccination), 3–6 mice per group were euthanized and spleens were harvested the assessment of cell-mediated immunity. At day 28 (14 days post booster vaccination) the remaining 7 mice in each group were euthanized and blood was collected for the measurement of M72 specific humoral immunity.
Sera was collected from mice 14 days post-primary and 14 days post-secondary injection and diluted according to the expected antibody response (between 1:10 and 1:5000). Plates were coated with 100 μl of the full-length M72 protein at 1 μg/mL. Following washing (PBS plus tween 20) and blocking (SuperBlock, Scytek Laboratories), plates were incubated with diluted serum for 1 h followed by anti-mouse IgG, IgG1, or IgG2a-HRP secondary antibody (Bethyl Laboratories) and TMB substrate (BD). Plates were read at 450 nm. Antibody titers were determined by calculating titer of each sample at OD 0.3.
Figure 6 Serum antibody levels from mice in response to vaccination with recombinant M72 antigen and various αTDE compounds. BALB/c mice, 10 per group, were vaccinated two times i.m. with 0.125 μg antigen plus 2, 10, or 50 nmol of the indicated adjuvant. Serum was analyzed from 7 mice at 14 days post-secondary vaccination for presence of anti-M72 IgG1 and IgG2a antibodies via ELISA.
(§2) Figure 8 B16 liposomes biases a Th17/Th2 adaptive immune response. BALB/c mice, 14 per group, were immunized twice, 14 days apart, i.m with 0.1, 1, or 10 μg of M72 antigen plus either blank DDA:DSPC liposome or B16 loaded (10 nmol final dose) liposome. (A,B) M72-specific serum antibody titers at 14 days post-secondary vaccination. (C–F) Spleens were harvested from mice at 5 days post-secondary vaccination and restimulated with 1 μg/mL whole antigen and transport inhibitors followed by surface staining for CD3, CD4, and CD8 and then intracellular cytokine staining. (C) Percent of live, CD3^+/CD4^+/IL5+ cells, (D) Percent of live, CD3^+/CD8^+/IFNγ+ cells, (E) Percent of live, CD3^+/CD4^+/IL17+ cells, and (F) Percent of live, CD3^+/CD8^+/IL17+ cells. ^*p < 0.05, ^**p < 0.01, ^****p < 0.001.
(An ELISA detects its analyte on a solid surface through an enzyme-linked reagent.)

The subject of data set [5] is BALB/c mice. The data set is described as follows: Splenocyte restimulation with M72 and intracellular cytokine staining of CD4/CD8 T cells after vaccination. It is filed as in vivo, mouse. As to the method:
as §1
Spleens were harvested from vaccinated mice 5 days after secondary injections and splenocytes were harvested by disruption of the spleens through a 100 μm filter. Red blood cells were lysed by incubation with red blood cell lysis buffer (Sigma) for 5 min followed by washing in 1x PBS. Cells were plated in a 96 well plate at 5 × 10^6 cells/well in 200 μL complete RPMI1640 media. Cells were incubated with 1 μg/mL M72 antigen for […] at 37°C. After 7 h, GolgiPlug (Brefeldin A, BD Biosciences) was added to each well and incubated at 37°C for a further 12 h. Following incubation, cells were stained with the cell surface antibodies against CD3e PerCP-Cy5.5 (Tonbo Biosciences, 145-2C11), CD4a APC-Cy7 (Tonbo Biosciences, RM4-5) and CD8a PE-Cy7 (Tonbo Biosciences, 53–6.7) and viability stain (Ghost 510, Tonbo Biosciences). Cells were treated with cytofix/cytoperm (BD) and stained with anti-IFNγ PE-CF594 (BD, XMG1.2), anti-IL2 FITC (Biolegend, JES6-5H4), anti-IL-5 PE (BD, TRFK5), anti-IL17A BV421 (Biolegend, TC11-18H10.1), and anti-TNFα APC (Invitrogen, MP6-XT22). Data was collected using an LSRII flow cytometer (BD) and analyzed using FlowJo 10.0 software (TreeStar). Splenocytes were gated on live, single cells, then CD3+ to identify all T cells, then gated as CD4+CD8- to identify CD4 T cells or CD4-CD8+ to identify CD8 T cells. Gates for intracellular cytokine positive CD4 or CD8 T cells are set based on re-stimulation of naïve splenocytes. Gating strategies for the detection of antigen specific CD4+ and CD8+ T cells are outlined in Supplemental Figure 3.
Figure 7 Induction of IL-17 producing CD4+ and CD8+ T cells from an αTDE adjuvanted M72 vaccine. BALB/c mice, 10 per group, were immunized two times i.m. with 0.125 μg antigen plus 2, 10, or 50 nmol of the indicated adjuvant. Spleens were harvested from a subset of 3 mice per group at 5 days post-secondary vaccination. Splenocytes were restimulated with 1 μg/mL whole antigen and transport inhibitors followed by surface staining for CD3, CD4, and CD8 and then intracellular cytokine staining. Data represent percentage of live, CD3^+/CD4^+, left, or CD3^+/CD8^+, right, cells that are also positive for IL-17A upon stimulation.
as §2
Supplemental Figure 10. Production of IFNɣ, IL-2, IL-5 or TNFα by CD4 or CD8 T cells in response to various CLR compounds. […]

As for `CC(C)C(=O)OC[C@H]1O[C@H](O[C@H]2O[C@H](COC(=O)C(C)C)[C@@H](O)[C@H](O)[C@H]2O)[C@H](O)[C@@H](O)[C@@H]1O` [Compound B4], in data set [1], the “Th17-associated cytokine production (TNFα, IL-1β, IL-6, IL-23) from human PBMCs” value (“Th17-associated cytokine production” below) is given as “mixed responses”.
As a reminder, the EC50 is the concentration that produces a half-maximal response. `CCC(CC)C(=O)OC[C@H]1O[C@H](O[C@H]2O[C@H](COC(=O)C(CC)CC)[C@@H](O)[C@H](O)[C@H]2O)[C@H](O)[C@@H](O)[C@@H]1O` [Compound B6]: the EC50 in data set [2] was 0.739 µM. In data set [1], the “Th17-associated cytokine production” value was “mixed responses”.
As for `CCCC(CCC)C(=O)OC[C@H]1O[C@H](O[C@H]2O[C@H](COC(=O)C(CCC)CCC)[C@@H](O)[C@H](O)[C@H]2O)[C@H](O)[C@@H](O)[C@@H]1O` [Compound B8], in data set [2], the EC50 is 2.85 µM. Moreover, the “Cell viability of Mincle HEK cells” value in data set [3] is on record as “marked decreases in viability”. In addition, the “Th17-associated cytokine production” value in data set [1] was “readily detected”.
The corresponding values for `CCCCC(CCCC)C(=O)OC[C@H]1O[C@H](O[C@H]2O[C@H](COC(=O)C(CCCC)CCCC)[C@@H](O)[C@H](O)[C@H]2O)[C@H](O)[C@@H](O)[C@@H]1O` [Compound B10] are 3.45 µM, “marked decreases in viability” and “readily detected”.
Take `CCCCCCCCCCCCCCCCCCCCC(CCCCCCCCCCCCCCCCCCCC)C(=O)OC[C@H]1O[C@H](O[C@H]2O[C@H](COC(=O)C(CCCCCCCCCCCCCCCCCCCC)CCCCCCCCCCCCCCCCCCCC)[C@@H](O)[C@H](O)[C@H]2O)[C@H](O)[C@@H](O)[C@@H]1O` [Compound B42]: the “Anti-M72 serum IgG1 and IgG2a antibody” value in data set [4] was “neither compound significantly enhanced”. Moreover, the “IL-5 production in CD8+ T cells” value is reported as “increased” in data set [5] (2 nmol adjuvant, 0.125 μg antigen, over liposome control); “increased” in data set [5] (50 nmol adjuvant, 0.125 μg antigen, over naïve and liposome control). In addition, the “IL-17+ CD4+ and CD8+ T cells (Th17 response) after M72 re-stimulation” value in data set [5] (0.125 μg antigen plus 2, 10, or 50 nmol liposomal adjuvant, i.m. two times, spleens 5 days post-secondary) was “able to drive superior Th17 responses”. Further, the “TNFα production by T cells” value in data set [5] (highest dose evaluated, 0.125 μg antigen, compared to controls) is recorded as “increased compared to controls”.
